This is an account of results in PMC7667655, “Targeted Covalent Inhibition of Plasmodium FK506 Binding Protein 35” (ACS Medicinal Chemistry Letters, 2020).

For series [1], the target named is T1, FBD35 (PfFKBP35 binding domain) (Plasmodium falciparum, UniProt Q8I4V8).
T1 construct: FKBP35 Q5 -A128; 6His-SUMO (N, cleaved yes); made in house; host or cells: E. coli BL21 DE3
The experiment in a line: Fluorescence polarization competition, FBD35.

For series [2], the target named is T2, FKBP12 (Homo sapiens, UniProt P62942).
T2 construct: 6His-SUMO (N, cleaved yes); made in house; host or cells: E. coli (identical protocol to FBD35, BL21 DE3)
T2 sequence (P62942 whole entry): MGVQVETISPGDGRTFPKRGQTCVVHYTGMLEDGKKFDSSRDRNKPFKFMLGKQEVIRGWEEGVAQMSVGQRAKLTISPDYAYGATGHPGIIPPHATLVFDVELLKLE
Kind of series: Fluorescence polarization competition, FKBP12. Format: binding.

Series [3] concerns the target T1, FBD35 (PfFKBP35 binding domain). The experiment in a line: Differential scanning calorimetry, FBD35. Conditions: read-out: FBD35 ΔTM.
Series [4] deals with T2, FKBP12. Kind of series: Differential scanning calorimetry, FKBP12. The note with it: compound 40 µM. Format: binding.
A further series is described as follows: PBS solubility. Conditions: pH 7.4.
Series [5] has as its target T3, nLuc-tagged full length PfFKBP35 (Plasmodium falciparum, UniProt Q8I4V8).
T3 construct: nanoluciferase-tagged (nLuc) full length PfFKBP35 or nLuc-tagged FKBP12; expressed in transfected cells
The experiment in a line: NanoBRET cellular target engagement, nLuc-FKBP35. The series is classed as cell-based.

In a further series the target is T4, nLuc-tagged FKBP12 (Homo sapiens, UniProt P62942).
T4 construct: full length Plasmodium falciparum FKBP35 and human FKBP12 DNA were; expressed in transfected cells
T4 sequence (P62942 whole entry): as above
The experiment in a line: NanoBRET cellular target engagement, nLuc-FKBP12. Format: cell-based.

A further series concerns the target T5, FKBP35 (Plasmodium falciparum, UniProt Q8I4V8).
T5 construct: FKBP35 Q5 -A128; 6His-SUMO (N, cleaved yes); made in house; host or cells: E. coli BL21 DE3
The experiment in a line: Time course of covalent modification by LC-MS. Format: biochemical. An excerpt: RT=5.2). B. Overlay of mass determinations from LC traces in (A). FBD35 only (black, m/z = […]
chromatogram corresponding to Figure 4c detecting the CAM -peptide […] at […]
m/z 855.8668. D. Mass spec chromatogram corresponding to Figure 4d detecting the CAM - […]
peptide […] at m/z 855.8670. E. Mass spec chromatogram corresponding to Figure 4e which was unable to detect the mass of the 1c-inclusion peptide. F. Mass spec chromatogram corresponding to Figure 4f detecting the 1c-inclusion peptide […]
Figure S2. Time course of covalent modification. In order to compare rates of covalent modification, compounds 1a-c, 2a, and 2c were incubated with FKBP35 in a 5:1 ratio (2250 nM inhibitor : 450 nM FKBP35) and FKBP35 consumption or modification determined by LC -MS. A.
The concentration of residual FKBP35 as a function of time. Data was fit to an exponential “one phase decay” model which was used to calculate the rate (K) and half -life (t1/2) of the reaction.
The loss of FKBP35 in the DMSO and 1b controls is likely due to adsorption onto the vial. B.
Concentration of covalent adduct as a function of time. Data was fit to an “exponential plateau” regression model, which was used to calculate the rate of formation (K’). Compound 1b, which […]
C. Tabulated rates calculated from the regressions in A and B. The rates of FKBP35 consumption correlate strongly with the rates of […]
(also on this page, place not known: -inclusion 1c 0 20 40 60 0 200 400 600 Time (hours) FKBP35 (nM) Consumption of FKBP35 1a 1b 1c 2a 2c DMSO 0 20 40 60 0 200 400 600 Time (hours) Covalent Adduct (nM) Formation of Covalent Adduct 1a 1b 1c 2a 2c A B) […]
(1 picture or pasted object on this page, not shown here)
Experiments were performed using 0.4 mg/mL concentration of wild -type or mutant protein (6 - 9 uM), with and without synthes ized compounds at 40 µM and 2% DMSO (V/V). The respective reference scans were run under identical DSC conditions and subtracted from each sample scan.
The program was run in a continuous acquisition mode from 25°C to 90°C at a rate of 120C/h The heat capacity curves and midpoint temperature (Tm) were analyzed using Origin 7.0 software.
Fluorescence Polarization
The fluorescent tracer SLFb-2PEG-TAMRA was diluted in DMSO to 100 nM (100x stock concentration). FKBP proteins were diluted in assay buffer (150 mM NaCl, 20 mM HEPES pH 7.5, 0.002% Triton X -100) to the indicated concentration. 100x DMSO tracer stock was added to the protein buffer solution to a 1X final concentration and 20 µL of the mixture was aliquoted into each well of a black 384 -well assay plate (No. 3820, Corning Life Sciences). The plate was briefly centrifuged to remove bubbles. Using a d300e digital dispenser (Tecan), competitive ligands (10 mM stock in DMSO) were aliquoted in triplicate in an 8 -point 3x dilution series (30 µM to 13.7 nM final concentra tion) and normalized to 2% total DMSO concentration. Following incubation at room temperature (RT) for one hour, fluorescence polarization was measured using an EnVision Multimode Plate Reader (PerkinElmer) with the TAMRA Dual -FP mirror and filter kit. […]
analyzed in GraphPad Prism 8 by fitting the data to the “One Site – Fit Ki” model to obtain the […]
Time Course Analysis of Covalent Inhibition
The following analy sis was performed as described on two different days, yielding similar results.
One replicate is shown for clarity. In 1.5 mL snap -top tubes, ligands 1a, 1b, 1c, 2a, and 2c were each diluted to 450 μM in DMSO to produce 200x stock solutions. In a separate 1.5 mL snap-top tube, isolated FKBP35 protein was diluted to 90 μM in the reaction buffer (150 mM NaCl, 20 mM HEPES pH = 7.5) to produce a 200x stock solution. In 2 mL glass mass spec vials, 5 μL of each 200x ligand solution was diluted in 990 μL reaction buffer. Immediately prior to injection of each t=0 time point, 5 μL of the 200x protein solution was added to the mass spec vial and mixed. Samples were analyzed using the Waters BioAccord LC-ToF (composed of an ACQUITY I -Class UPLC and […]

Where [6] appears, read: read-out: FBD35 IC50, fluorescence polarization, competitive inhibition model, * incomplete displacement of fluorescent probe.
[7] abbreviates: fluorescence polarization, competitive inhibition model, read-out: FKBP12 IC50.
Setting [8] is: differential scanning calorimetry, compound 40 µM.

In brackets after ≈: the same amount, converted by molar mass. Like-named read-outs stand apart in the source and are kept apart here.

T1 sequence (Q8I4V8 5-128): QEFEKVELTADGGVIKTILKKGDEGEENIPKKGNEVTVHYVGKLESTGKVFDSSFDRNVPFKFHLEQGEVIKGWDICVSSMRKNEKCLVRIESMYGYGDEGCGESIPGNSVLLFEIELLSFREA
T3 sequence (Q8I4V8 whole entry): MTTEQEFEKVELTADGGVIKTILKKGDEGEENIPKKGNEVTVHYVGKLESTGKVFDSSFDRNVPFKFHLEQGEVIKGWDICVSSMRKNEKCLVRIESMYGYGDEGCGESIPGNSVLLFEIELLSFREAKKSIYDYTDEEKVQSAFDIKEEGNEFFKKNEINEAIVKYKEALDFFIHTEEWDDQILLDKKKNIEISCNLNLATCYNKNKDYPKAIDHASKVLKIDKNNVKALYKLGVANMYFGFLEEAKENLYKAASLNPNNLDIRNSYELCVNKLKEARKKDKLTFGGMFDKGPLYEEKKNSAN
T5 sequence (Q8I4V8 5-128): as the sequence (Q8I4V8 5-128) above

Regarding `C=CC(=O)Nc1ccc([C@@H](CCc2ccc(OC)c(OC)c2)OC(=O)[C@@H]2CCCCN2C(=O)C(=O)C(C)(C)CC)cc1` [1d], the IC50 was 85 nM in series [1] and 100 nM on FKBP12 [2]. For the same compound, the ΔTm at 40 µM in series [3] was 2.3 °C; at FKBP12 [4], 6 °C.
On to `C=CC(=O)Nc1cccc([C@@H](CCc2ccc(OC)c(OC)c2)OC(=O)[C@@H]2CCCCN2C(=O)C(=O)c2cc(OC)c(OC)c(OC)c2)c1` [1e], for which the values for the IC50 (in series [1] (setting [6]); at FKBP12 [2]) were more than 30000 nM and 326 nM, respectively. The ΔTm at 40 µM came to 1.5 °C in series [3] and 4.9 °C at FKBP12 [4]. The amount in solution in the series “PBS solubility” (solubility) came to 3.1 µM (≈ 2.09 µg/mL).
On to `C=CC(=O)Nc1ccccc1[C@@H](CCc1ccc(OC)c(OC)c1)OC(=O)[C@@H]1CCCCN1C(=O)C(=O)c1cc(OC)c(OC)c(OC)c1` [1f], for which the IC50 in series [1] (setting [6]) is more than 30000 nM; on FKBP12 [2] (setting [7]), 3270 nM. Further, the ΔTm at 40 µM in series [3] (setting [8]) was -1.3 °C; on FKBP12 [4] it was 1.4 °C. In “PBS solubility”, this compound came in with a solubility of 23 µM (≈ 15.5 µg/mL).
On to `C=CC(=O)NCC(C)(C)C(=O)C(=O)N1CCCC[C@H]1C(=O)O[C@H](CCc1ccc(OC)c(OC)c1)c1ccccc1` [2a], for which the IC50 in series [1] is 104 nM; on FKBP12 [2], 23 nM; in series [5], 1350 nM; on nLuc-tagged FKBP12, 501 nM. Besides, the ΔTm at 40 µM was 15.2 °C in series [3] and 8.8 °C on FKBP12 [4]. Further, the “K, rate of FKBP35 consumption” value at FKBP35 (2250 nM inhibitor : 450 nM FKBP35, 23 °C, one phase decay fit) came to 0.05916 h⁻¹. Besides, the “K’, rate of covalent adduct formation” value at FKBP35 (2250 nM inhibitor : 450 nM FKBP35, exponential plateau fit) is 0.04354 h⁻¹.
Consider `CCC(=O)NCC(C)(C)C(=O)C(=O)N1CCCC[C@H]1C(=O)O[C@H](CCc1ccc(OC)c(OC)c1)c1ccccc1` [2b], for which the IC50 in series [1] is 92 nM; at FKBP12 [2], 40 nM; in series [5], 1880 nM; against nLuc-tagged FKBP12, 416 nM. Moreover, the ΔTm at 40 µM was 4.3 °C in series [3] and 7.7 °C at FKBP12 [4].
With `C=CC(=O)NCCCC(=O)N1CCCC[C@H]1C(=O)O[C@H](CCc1ccc(OC)c(OC)c1)c1ccccc1` [2e], the results for the IC50 (in series [1]; on FKBP12 [2]) were 2640 nM and 3250 nM, respectively. Moreover, the figures for the ΔTm at 40 µM (in series [3]; at FKBP12 [4]) were 13.8 °C and 7.9 °C, respectively.
Take `C=CC(=O)Nc1ccccc1C(=O)C(=O)N1CCCC[C@H]1C(=O)O[C@H](CCc1ccc(OC)c(OC)c1)c1ccccc1` [2f]: at FKBP12 [2] (setting [7]), the IC50 was more than 30000 nM. Besides, the shift in melting temperature (ΔTm) at 40 µM in series [3] (setting [8]) was determined as 0.4 °C; at FKBP12 [4] it was 0.2 °C.
For `C=CC(=O)Nc1cc(OC)ccc1C(=O)C(=O)N1CCCC[C@H]1C(=O)O[C@H](CCc1ccc(OC)c(OC)c1)c1ccccc1` [2g] the same measures were more than 30000 nM, 0 °C and 0.1 °C.
Regarding `C=CC(=O)OCC(C)(C)C(=O)C(=O)N1CCCC[C@H]1C(=O)O[C@H](CCc1ccc(OC)c(OC)c1)c1cccc(OCC(=O)O)c1` [2h], the figures for the IC50 (in series [1]; on FKBP12 [2]) were 137 nM and 38 nM, respectively. The ΔTm at 40 µM in series [3] was 16.3 °C; on FKBP12 [4] it was 6.2 °C. In “PBS solubility”, this compound displayed a solubility of 70 µM (≈ 44.8 µg/mL).
Turning to `CCC(C)(C)C(=O)C(=O)N1CCCC[C@H]1C(=O)O[C@H](CCc1ccc(OC)c(OC)c1)c1cccc(N)c1` [SLF, reference compound], the IC50 in series [1] came out at 177 nM. Also, the ΔTm at 40 µM in series [3] is 2.9 °C; at FKBP12 [4], 0.4 °C.
